Laboratory results: patent publication US20200378950A1, “Glycosylation site-specific antibodies and anti-cancer compounds” (Detroit R & D, Inc., priority 2019, published 2020)

How the values were obtained:
[1] = test system: unmodified c-myc in MCF-7 cells; test: Western blot of unmodified c-myc protein in treated MCF-7 cells; type: cell-based; conditions: MCF-7, 4 hr, 2 mM, Peptide #2-N antibody
Experimental: Western blot analysis was carried out with 10% gel electrophoresis using nuclear lysates obtained from MCF-7 cells with antibodies for O-GlcNAcylated c-myc (Peptide #2-G). […] There was no increase in unmodified c-myc protein after ketoconazole treatment as verified with antibodies for unmodified c-myc (Peptide #2-N) by Western blot analysis.

MCF-7 and MCF10A cells = test: Lactate dehydrogenase (LDH) cytotoxicity assay, MCF-7 compared with MCF10A; type: cell-based; conditions: 2 mM, 4 hr
Experimental: Increased O-GlcNAcylated c-myc levels in MCF-7 cells induced cell death. MCF-7 tumor cell death after 2 mM ketoconazole treatment was compared with MCF10A normal cell death by LDH cytotoxicity assay. After treatment of cells for 4 hr, extracellular media and Triton X-100 solubilized cells were obtained and oxidation of NADH to NAD+ in both fractions was monitored for 2 min at a 340 nm to obtain total (media+cells) LDH release.

[2] = test system: MCF-7 breast cancer cells; test: Cell proliferation, MCF-7; type: cell-based
Experimental: Cell proliferation assays were carried out after seeding 3,000-5,000 cells in a 96-well plate with and without treatment of 50 μM ketoconazole dissolved in DMSO (final concentration, 1%) for 72 hr (FIG. 8, Panel A). The cell number was counted after staining the cells with 3-(4,5-dimethylthiazol-2-yl)2,5-diphenyl-tetrazolium bromide (MTT).

[3] = test system: MCF10CA1A breast cancer cells; test: QCM ECMatrix cell invasion assay, MCF10CA1A; type: cell-based; conditions: MCF-10CA1A, 100 μM for 72 hr
Experimental: Cell invasiveness of SW480 and HT29 human colon adenocarcinoma cells and MCF10CA1A breast cancer cells with and without 72 hr treatment with 100 μM ketoconazole was studied in 24-well plates using the QCM ECMatrix cell invasion assay kit (EMD Millipore).

[4] = test system: Mia Paca-2 pancreatic cancer cells; test: Wound healing (cell migration) assay, Mia Paca-2; type: cell-based; conditions: Mia Paca-2, 100 μM
Experimental: (§1) Wound healing assays were also carried out to verify inhibition of cell migration after ketoconazole treatment.
(§2) Wound healing assays to measure inhibition of cell migration toward scratched area with and without treatment of 100 μM ketoconazole dissolved in DMSO (final concentration, 1%). Percent of cells migrated toward a scratched field are shown. […] Percent of cells migrated toward a scratched field are shown.

[5] = test system: PANC1 pancreatic cancer cells; test: Wound healing (cell migration) assay, PANC1; type: cell-based; conditions: PANC1, 100 μM
Experimental: as §1, §2

SW480 colon cancer cells = test: Wound healing (cell migration) assay, SW480; type: cell-based, human; conditions: SW480, 100 μM
Experimental: as §2

HT29 colon cancer cells = test: Wound healing (cell migration) assay, HT29; type: cell-based, human; conditions: HT29, 100 μM
Experimental: as §2

[6] = test system: O-GlcNAcylated c-myc in MCF-7 cells; test: Western blot of O-GlcNAcylated c-myc levels in treated MCF-7 cells; type: cell-based; conditions: MCF-7, 24 hr treatment, 2 mM, nuclear lysates
Experimental: MCF-7 cells were grown in MEM/EBSS media (Hyclone, Logan, Utah) supplemented with 10% fetal bovine serum and 0.01 mg/mL insulin. MCF-10A cells were grown in DMEM/F12 media (Hyclone) supplemented with 5% horse serum, […], […], 20 ng/mL EGF, […], 100 units/mL penicillin-streptomycin and 2 mM glutamine. The glucose concentration of MEM/EBSS and DMEM/F12 media are 6 mM and 18 mM, respectively. Cells were maintained in humidified atmosphere with 95% air and 5% CO2 at 37° C.
MCF-7 breast cancer cells were treated for 24 hr with 1% DMSO, with an O-GlcNAcase inhibitor, streptozotocin (STZ), with N^6-methyladenosine 5′-monophosphate [an O-GlcNAcase inhibitor discovered through by screening with the pseudofluorescent substrate 4-methylumbelliferol (4-MU)-GlcNAc (7)] or with media (control) (FIG. 5).
O-GlcNAcase inhibitors, which increased O-GlcNAcylation levels of proteins by preventing cleavage of an O-GlcNAc moiety of Ser or Thr residues, were identified using the antibodies of the present invention. […]
MCF-7 cells were treated for 4 hr with 1% DMSO (negative control) or 2 mM ketoconazole in DMSO and an O-GlcNAcylated c-myc band was detected using a second antibody for O-GlcNAcylated c-myc (Peptide #1-G).

[7] = test system: O-GlcNAcylated p53 in MCF-7 cells; test: Western blot of O-GlcNAcylated p53 levels in treated MCF-7 cells; type: cell-based; conditions: MCF-7, 24 hr, 2 mM, cytosol-containing supernatants
Experimental: MCF-7 cells were grown in MEM/EBSS media (Hyclone, Logan, Utah) supplemented with 10% fetal bovine serum and 0.01 mg/mL insulin. […] The glucose concentration of MEM/EBSS and DMEM/F12 media are 6 mM and 18 mM, respectively. Cells were maintained in humidified atmosphere with 95% air and 5% CO2 at 37° C.
MCF-7 cells were grown for 24 hr with treatment of 1% DMSO (negative control) or 2 mM STZ or acetazolamide dissolved in DMSO or 2 mM N^6-methyladenosine 5′-monophosphate dissolved in media. The cells were harvested and cytosol-containing supernatants were obtained.

| Structure (SMILES) | unmodified c-myc protein level [1] | cell death in MCF-7 cells higher than in MCF10A cells (LDH release) (MCF-7 and MCF10A cells) | inhibition of cell proliferation [2] | inhibition of migration in cell invasion assay [3] | % cells migrated ([4]; 0 hr) | % cells migrated ([4]; 24 hr) | % cells migrated ([4]; 24 hr, listed as Ketoconazole) | % cells migrated ([4]; 48 hr) | % cells migrated ([5]; 0 hr) | % cells migrated ([5]; 24 hr) | % cells migrated ([5]; 48 hr) | inhibition of cell migration ([5]; wound healing) | Percent of cells migrated (SW480 colon cancer cells; 0 hr) | inhibition of cell migration (SW480 colon cancer cells; 24 hours) | Percent of cells migrated (SW480 colon cancer cells; 24 hr) | Percent of cells migrated (HT29 colon cancer cells; 0 hr) | inhibition of cell migration (HT29 colon cancer cells; 24 hours) | Percent of cells migrated (HT29 colon cancer cells; 24 hr) | O-GlcNAcylated c-myc levels [6] | Levels of O-GlcNAcylated p53 [7] |
| --- | --- | --- | --- | --- | --- | --- | --- | --- | --- | --- | --- | --- | --- | --- | --- | --- | --- | --- | --- | --- |
| CC(=O)N1CCN(c2ccc(OCC3COC(Cn4ccnc4)(c4ccc(Cl)cc4Cl)O3)cc2)CC1 (centres unmarked) [ketoconazole] | no increase | 84% | inhibited the proliferation | partially inhibited | 0% | 11.6% | 10% | 12% | 0% | 6% | 11% | failed to inhibit | 0 | slightly inhibited | 27 | 0 | slightly inhibited | 8 |  |  |
| CC(=O)Nc1nnc(S(N)(=O)=O)s1 [acetazolamide] |  |  |  |  |  |  |  |  |  |  |  |  |  |  |  |  |  |  | did not increase | potent inducer |
